Results: publication PMC9785231, “Synthesis and Pharmacological Evaluation of Enantiopure N-Substituted Ortho-c Oxide-Bridged 5-Phenylmorphans” (Molecules, 2022)
Where a name gives a salt, the structure may show the parent alone. Read-outs that look alike come from different tables or passages of the source.

What was measured:
mu-opioid receptor (MOR) = conditions: cited from earlier work
[1] = system: cloned human mu-opioid receptor; conditions: [35S]GTPγS functional assay; cited from earlier work
δ-opioid receptor (DOR) = biological target: T1, δ-opioid receptor (DOR) (Rattus norvegicus, UniProt P33533); assay: Opioid receptor binding, DOR ([3H]DADLE), rat brain homogenate; conditions: for DOR Binding, activity in exploratory binding assays: 100 nM concentration, displacement of radioligand
T1 construct: All assay tubes contained 100 μL homogenate suspension; from tissue; host or cells: whole rat brain excluding cerebellum, membrane homogenate

κ-opioid receptor (KOR) = biological target: T2, κ-opioid receptor (KOR) (Rattus norvegicus, UniProt P34975); assay: Opioid receptor binding, KOR ([3H]U69,593), rat brain homogenate; conditions: for KOR Binding, activity in exploratory binding assays: 100 nM concentration, displacement of radioligand; for Ki: [3H]U69,593, whole rat brains excluding cerebellum, read-out: KOR Binding (Ki ± SEM)
T2 construct: All assay tubes contained 100 μL homogenate suspension; from tissue; host or cells: whole rat brain excluding cerebellum, membrane homogenate

μ-opioid receptor (MOR) = biological target: T3, μ-opioid receptor (MOR) (Rattus norvegicus, UniProt P33535); assay: Opioid receptor binding, MOR ([3H]DAMGO), rat brain homogenate; conditions: for MOR Binding, activity in exploratory binding assays: 100 nM concentration, displacement of radioligand; for Ki: [3H]DAMGO, whole rat brains excluding cerebellum, read-out: MOR Binding (Ki ± SEM)
T3 construct: All assay tubes contained 100 μL homogenate suspension; from tissue; host or cells: whole rat brain excluding cerebellum, membrane homogenate

in vitro [2] = conditions: human, microsomes
[3] = Microsomal metabolic stability, human liver microsomes; conditions: for Remaining (NCF = 60 min): HLM 0.5, no co-factor (no NADPH); for Remaining (T = 60 min): HLM 0.5, with NADPH
in vitro [4] = conditions: mouse, microsomes
[5] = Microsomal metabolic stability, mouse liver microsomes; conditions: for Remaining (NCF = 60 min): MLM 0.5, no co-factor (no NADPH); for Remaining (T = 60 min): MLM 0.5, with NADPH
CYP2D6 = biological target: T4, CYP2D6 (Homo sapiens, UniProt P10635); assay: P450 inhibition, human liver microsomal CYP2D6; type: in vitro ADME; conditions: human, human liver microsomes, read-out: 2D6 %Inhibition
T4 construct: selected human liver microsomal cytochrome P450 isozymes (CYP1A2, CYP2C9, CYP2C19, CYP2D6, and CYP3A); from tissue; host or cells: human liver microsomes

CYP2C9 = CYP2C9 (Homo sapiens, UniProt P11712); assay: P450 inhibition, human liver microsomal CYP2C9; conditions: microsomes
Sequence of CYP2C9 (P11712 whole entry): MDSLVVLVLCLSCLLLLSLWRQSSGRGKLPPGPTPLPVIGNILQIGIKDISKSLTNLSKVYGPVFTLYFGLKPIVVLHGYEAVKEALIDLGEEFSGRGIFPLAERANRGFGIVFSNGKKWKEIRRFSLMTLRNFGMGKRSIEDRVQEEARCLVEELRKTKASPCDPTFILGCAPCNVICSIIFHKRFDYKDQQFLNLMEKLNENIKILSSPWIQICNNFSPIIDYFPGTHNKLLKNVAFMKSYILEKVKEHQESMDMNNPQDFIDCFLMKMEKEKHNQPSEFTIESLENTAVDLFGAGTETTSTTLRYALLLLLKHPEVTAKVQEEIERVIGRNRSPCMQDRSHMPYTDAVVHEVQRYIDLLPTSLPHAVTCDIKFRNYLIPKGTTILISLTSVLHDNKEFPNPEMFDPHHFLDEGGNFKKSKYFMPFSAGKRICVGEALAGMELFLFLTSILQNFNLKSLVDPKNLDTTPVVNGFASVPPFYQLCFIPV

T1 sequence (P33533 whole entry): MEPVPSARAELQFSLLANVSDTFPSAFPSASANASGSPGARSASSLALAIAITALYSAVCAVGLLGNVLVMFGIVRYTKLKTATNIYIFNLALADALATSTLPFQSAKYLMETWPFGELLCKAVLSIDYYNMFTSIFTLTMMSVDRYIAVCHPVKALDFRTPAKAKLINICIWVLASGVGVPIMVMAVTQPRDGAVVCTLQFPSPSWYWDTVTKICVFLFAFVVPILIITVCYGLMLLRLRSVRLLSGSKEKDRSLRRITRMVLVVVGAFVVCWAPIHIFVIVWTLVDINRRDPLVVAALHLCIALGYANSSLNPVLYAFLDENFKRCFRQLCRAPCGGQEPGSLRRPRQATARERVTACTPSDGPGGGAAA
T2 sequence (P34975 whole entry): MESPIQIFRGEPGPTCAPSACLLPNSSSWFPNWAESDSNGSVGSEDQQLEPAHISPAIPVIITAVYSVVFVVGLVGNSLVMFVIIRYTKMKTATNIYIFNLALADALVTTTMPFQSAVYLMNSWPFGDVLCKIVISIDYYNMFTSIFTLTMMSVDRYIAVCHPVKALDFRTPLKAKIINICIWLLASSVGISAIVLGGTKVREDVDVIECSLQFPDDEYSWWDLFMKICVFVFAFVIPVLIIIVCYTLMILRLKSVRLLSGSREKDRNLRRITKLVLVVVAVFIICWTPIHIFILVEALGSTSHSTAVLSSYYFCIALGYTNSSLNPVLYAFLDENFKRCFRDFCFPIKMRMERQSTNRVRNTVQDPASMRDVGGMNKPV
T3 sequence (P33535 whole entry): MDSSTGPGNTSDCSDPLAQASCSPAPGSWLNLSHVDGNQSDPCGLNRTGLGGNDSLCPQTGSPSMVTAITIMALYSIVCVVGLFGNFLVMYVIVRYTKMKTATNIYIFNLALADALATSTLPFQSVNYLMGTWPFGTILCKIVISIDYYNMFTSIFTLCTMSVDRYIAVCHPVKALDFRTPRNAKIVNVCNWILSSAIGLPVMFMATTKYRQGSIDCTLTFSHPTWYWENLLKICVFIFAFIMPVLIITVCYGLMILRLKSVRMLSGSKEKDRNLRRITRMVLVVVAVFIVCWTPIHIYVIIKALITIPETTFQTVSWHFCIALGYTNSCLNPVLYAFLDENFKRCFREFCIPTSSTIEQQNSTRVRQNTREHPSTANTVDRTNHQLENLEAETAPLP
T4 sequence (P10635 whole entry): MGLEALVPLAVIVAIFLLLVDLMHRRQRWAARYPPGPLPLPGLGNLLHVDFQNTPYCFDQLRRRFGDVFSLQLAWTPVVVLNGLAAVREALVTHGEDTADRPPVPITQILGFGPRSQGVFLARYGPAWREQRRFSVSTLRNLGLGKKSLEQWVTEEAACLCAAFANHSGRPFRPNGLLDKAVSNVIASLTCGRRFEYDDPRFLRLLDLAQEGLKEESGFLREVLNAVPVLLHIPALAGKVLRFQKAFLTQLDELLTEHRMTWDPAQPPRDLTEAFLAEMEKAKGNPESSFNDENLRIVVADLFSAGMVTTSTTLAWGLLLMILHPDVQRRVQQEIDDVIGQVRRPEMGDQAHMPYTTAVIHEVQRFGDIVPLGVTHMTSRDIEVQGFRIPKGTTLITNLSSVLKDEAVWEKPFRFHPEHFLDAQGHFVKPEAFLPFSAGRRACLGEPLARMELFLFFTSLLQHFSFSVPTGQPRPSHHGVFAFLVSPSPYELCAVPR

Oc1cccc2c1O[C@@H]1CN(C[C@@H]3C[C@@H]3c3ccccc3)[C@@H]3CCC[C@]21C3 (as salt: HBr) [(-)-19, (3R,6aS,11aS)-2-(((1R,2S)-2-phenylcyclopropyl)methyl)-1,3,4,5,6,11a-hexahydro-2H-3,6a-methanobenzofuro[2,3-c]azocin-10-ol]
melting point: 193.3 to 198.3 °C

Oc1cccc2c1O[C@@H]1CN(C[C@H]3C[C@@H]3c3ccccc3)[C@@H]3CCC[C@]21C3 (as salt: HCl) [(+)-16, (3R,6aS,11aS)-2-(((1S,2S)-2-Phenylcyclopropyl)methyl)-1,3,4,5,6,11a-hexahydro-2H-3,6a-methanobenzofuro[2,3-c]azocin-10-ol]
melting point: 246.6 to 251.6 °C

Oc1cccc2c1O[C@H]1CN(C[C@H]3C[C@@H]3c3ccccc3)[C@H]3CCC[C@@]21C3 (as salt: HCl) [(+)-17, (3S,6aR,11aR)-2-(((1S,2S)-2-Phenylcyclopropyl)methyl)-1,3,4,5,6,11a-hexahydro-2H-3,6a-methanobenzofuro[2,3-c]azocin-10-ol]
melting point: 187.2 to 192.2 °C

Oc1cccc2c1O[C@@H]1CN(C[C@H]3C[C@H]3c3ccccc3)[C@@H]3CCC[C@]21C3 (as salt: HCl) [(+)-18, (3R,6aS,11aS)-2-(((1S,2R)-2-Phenylcyclopropyl)methyl)-1,3,4,5,6,11a-hexahydro-2H-3,6a-methanobenzofuro[2,3-c]azocin-10-ol]
melting point: 204.4 to 208.5 °C

Oc1cccc2c1O[C@H]1CN(C[C@H]3C[C@H]3c3ccccc3)[C@H]3CCC[C@@]21C3 (as salt: HCl) [(+)-19, (3S,6aR,11aR)-2-(((1S,2R)-2-Phenylcyclopropyl)methyl)-1,3,4,5,6,11a-hexahydro-2H-3,6a-methanobenzofuro[2,3-c]azocin-10-ol]
melting point: 183.1 to 187.7 °C

Oc1cccc2c1O[C@H]1CN(C[C@@H]3C[C@H]3c3ccccc3)[C@H]3CCC[C@@]21C3 (as salt: HCl) [(-)-16, (3S,6aR,11aR)-2-(((1R,2R)-2-Phenylcyclopropyl)methyl)-1,3,4,5,6,11a-hexahydro-2H-3,6a-methanobenzofuro[2,3-c]azocin-10-ol]
melting point: 252.7 to 256.5 °C

Oc1cccc2c1O[C@@H]1CN(C[C@@H]3C[C@H]3c3ccccc3)[C@@H]3CCC[C@]21C3 (as salt: HCl) [(-)-17, (3R,6aS,11aS)-2-(((1R,2R)-2-Phenylcyclopropyl)methyl)-1,3,4,5,6,11a-hexahydro-2H-3,6a-methanobenzofuro[2,3-c]azocin-10-ol]
melting point: 208.2 to 213.2 °C

Oc1cccc2c1O[C@H]1CN(C[C@@H]3C[C@@H]3c3ccccc3)[C@H]3CCC[C@@]21C3 (as salt: HCl) [(-)-18, (3S,6aR,11aR)-2-(((1R,2S)-2-Phenylcyclopropyl)methyl)-1,3,4,5,6,11a-hexahydro-2H-3,6a-methanobenzofuro[2,3-c]azocin-10-ol]
melting point: 193.9 to 198.5 °C

Oc1cccc2c1OC1CN(CCc3ccccc3)C3CCCC21C3 (racemic) [(±)-1]
Ki (mu-opioid receptor (MOR); racemate, read-out: mu-opioid receptor affinity Ki): 1.1 nM

Oc1cccc(C23CCCC(C2)N(CC2CC2c2ccccc2)CC3)c1 (single isomer, unassigned; (+)) [(+)-2]
mu-opioid antagonist activity Ke [1]: 0.17 nM
Ki (mu-opioid receptor (MOR); N-substituted 5-phenylmorphans, read-out: affinity at MOR Ki): 3 nM

Oc1cccc2c1O[C@@H]1CN(C[C@H]3C[C@@H]3c3ccccc3)[C@@H]3CCC[C@]21C3 [(+)-16, (3R,6aS,11aS)-2-(((1S,2S)-2-Phenylcyclopropyl)methyl)-1,3,4,5,6,11a-hexahydro-2H-3,6a-methanobenzofuro[2,3-c]azocin-10-ol]
DOR Binding, activity in exploratory binding assays (δ-opioid receptor (DOR)): NT (NT = not tested—inactive (<50% activity at 100 nM concentration in exploratory binding assays (displaced less than half of radioligand))
KOR Binding, activity in exploratory binding assays (κ-opioid receptor (KOR)): NT (NT = not tested—inactive (<50% activity at 100 nM concentration in exploratory binding assays (displaced less than half of radioligand))
MOR Binding, activity in exploratory binding assays (μ-opioid receptor (MOR)): NT (NT = not tested—inactive (<50% activity at 100 nM concentration in exploratory binding assays (displaced less than half of radioligand))

Oc1cccc2c1O[C@@H]1CN(C[C@H]3C[C@H]3c3ccccc3)[C@@H]3CCC[C@]21C3 [(+)-18, (3R,6aS,11aS)-2-(((1S,2R)-2-Phenylcyclopropyl)methyl)-1,3,4,5,6,11a-hexahydro-2H-3,6a-methanobenzofuro[2,3-c]azocin-10-ol]
DOR Binding, activity in exploratory binding assays (δ-opioid receptor (DOR)): NT (NT = not tested—inactive (<50% activity at 100 nM concentration in exploratory binding assays (displaced less than half of radioligand))
KOR Binding, activity in exploratory binding assays (κ-opioid receptor (KOR)): NT (NT = not tested—inactive (<50% activity at 100 nM concentration in exploratory binding assays (displaced less than half of radioligand))
MOR Binding, activity in exploratory binding assays (μ-opioid receptor (MOR)): NT (NT = not tested—inactive (<50% activity at 100 nM concentration in exploratory binding assays (displaced less than half of radioligand))

Oc1cccc2c1O[C@H]1CN(C[C@H]3C[C@H]3c3ccccc3)[C@H]3CCC[C@@]21C3 [(+)-19, (3S,6aR,11aR)-2-(((1S,2R)-2-Phenylcyclopropyl)methyl)-1,3,4,5,6,11a-hexahydro-2H-3,6a-methanobenzofuro[2,3-c]azocin-10-ol]
DOR Binding, activity in exploratory binding assays (δ-opioid receptor (DOR)): NT (NT = not tested—inactive (<50% activity at 100 nM concentration in exploratory binding assays (displaced less than half of radioligand))
Ki (κ-opioid receptor (KOR)): 67.3 ± 7.9 nM
Ki (μ-opioid receptor (MOR)): 52.4 ± 5.1 nM

Oc1cccc2c1O[C@H]1CN(C[C@@H]3C[C@H]3c3ccccc3)[C@H]3CCC[C@@]21C3 [(-)-16, (3S,6aR,11aR)-2-(((1R,2R)-2-Phenylcyclopropyl)methyl)-1,3,4,5,6,11a-hexahydro-2H-3,6a-methanobenzofuro[2,3-c]azocin-10-ol]
DOR Binding, activity in exploratory binding assays (δ-opioid receptor (DOR)): NT (NT = not tested—inactive (<50% activity at 100 nM concentration in exploratory binding assays (displaced less than half of radioligand))
KOR Binding, activity in exploratory binding assays (κ-opioid receptor (KOR)): NT (NT = not tested—inactive (<50% activity at 100 nM concentration in exploratory binding assays (displaced less than half of radioligand))
Ki (μ-opioid receptor (MOR)): 109 ± 5.5 nM

Oc1cccc2c1O[C@@H]1CN(C[C@@H]3C[C@H]3c3ccccc3)[C@@H]3CCC[C@]21C3 [(-)-17, (3R,6aS,11aS)-2-(((1R,2R)-2-Phenylcyclopropyl)methyl)-1,3,4,5,6,11a-hexahydro-2H-3,6a-methanobenzofuro[2,3-c]azocin-10-ol]
DOR Binding, activity in exploratory binding assays (δ-opioid receptor (DOR)): NT (NT = not tested—inactive (<50% activity at 100 nM concentration in exploratory binding assays (displaced less than half of radioligand))
KOR Binding, activity in exploratory binding assays (κ-opioid receptor (KOR)): NT (NT = not tested—inactive (<50% activity at 100 nM concentration in exploratory binding assays (displaced less than half of radioligand))
MOR Binding, activity in exploratory binding assays (μ-opioid receptor (MOR)): NT (NT = not tested—inactive (<50% activity at 100 nM concentration in exploratory binding assays (displaced less than half of radioligand))

Oc1cccc2c1O[C@H]1CN(C[C@@H]3C[C@@H]3c3ccccc3)[C@H]3CCC[C@@]21C3 [(-)-18, (3S,6aR,11aR)-2-(((1R,2S)-2-Phenylcyclopropyl)methyl)-1,3,4,5,6,11a-hexahydro-2H-3,6a-methanobenzofuro[2,3-c]azocin-10-ol]
Ki (δ-opioid receptor (DOR); [3H]DADLE, whole rat brains excluding cerebellum, read-out: DOR Binding (Ki ± SEM)): 89 ± 13.4 nM
Ki (κ-opioid receptor (KOR)): 109 ± 16 nM

Oc1cccc2c1O[C@@H]1CN(C[C@@H]3C[C@@H]3c3ccccc3)[C@@H]3CCC[C@]21C3 [(-)-19, (3R,6aS,11aS)-2-(((1R,2S)-2-phenylcyclopropyl)methyl)-1,3,4,5,6,11a-hexahydro-2H-3,6a-methanobenzofuro[2,3-c]azocin-10-ol]
DOR Binding, activity in exploratory binding assays (δ-opioid receptor (DOR)): NT (NT = not tested—inactive (<50% activity at 100 nM concentration in exploratory binding assays (displaced less than half of radioligand))
KOR Binding, activity in exploratory binding assays (κ-opioid receptor (KOR)): NT (NT = not tested—inactive (<50% activity at 100 nM concentration in exploratory binding assays (displaced less than half of radioligand))
MOR Binding, activity in exploratory binding assays (μ-opioid receptor (MOR)): NT (NT = not tested—inactive (<50% activity at 100 nM concentration in exploratory binding assays (displaced less than half of radioligand))

O=C(O)Cc1ccccc1Nc1c(Cl)cccc1Cl [Diclofenac]
CLint scaled (in vitro [2]): 162 mL/min/kg
Remaining (NCF = 60 min) [3]: 95.1%
Remaining (T = 60 min) [3]: 0.4%
microsomal CLint (in vitro [4]): 35.4 µL/min/mg
Remaining (NCF = 60 min) [5]: 99.4%
Remaining (T = 60 min) [5]: 33.5%

C=C[C@H]1C[N@@]2CC[C@H]1C[C@@H]2[C@@H](O)c1ccnc2ccc(OC)cc12 [Quinidine, reference compound]
inhibition at 10 µM (CYP2D6): 94.2%

Nc1ccc(S(=O)(=O)Nc2ccnn2-c2ccccc2)cc1 [Sulfaphenazole]
inhibition at 10 µM (CYP2C9): 85.2%

C[C@]12CC[C@H]3[C@@H](CCC4=CC(=O)CC[C@@]43C)[C@@H]1CC[C@@H]2O [Testosterone]
CLint scaled (in vitro [2]): 96.4 mL/min/kg
Remaining (NCF = 60 min) [3]: 86.7%
Remaining (T = 60 min) [3]: 3.9%
CLint scaled (in vitro [4]): 1720 mL/min/kg
half-life (in vitro [4]): 3.2 min
microsomal CLint (in vitro [4]): 435 µL/min/mg
Remaining (NCF = 60 min) [5]: 97.1%
Remaining (T = 60 min) [5]: 0.0%
